We go through 89 molecules from a melting point compilation (Tetko et al.; mined from patent text by program, amines drawn as free bases though some values may be those of a salt).

The structures appear in SMILES notation.

`Cc1cn(Cc2ccccc2)c(=O)n(CCCCl)c1=O` displayed a melting point of 48 to 50 °C.

As for `CCN1C(=O)C(C)(C)C(=O)N(C)c2cc(CN(CCn3ccc4oc(C)cc4c3=O)Cc3n[nH]c4c(C)cccc34)ccc21`, the melting point lay in the range of 111 to 118 °C. To `Nc1ccc(C(=O)O)c2ccccc12` belongs 169 to 171 °C. To `Cc1nc(-c2ccccc2)cc(-c2cccc(C#N)c2)c1C(=O)NCCN1CCOCC1` belongs 166 to 168 °C. The molecule `Cc1sc2c(Br)c3ccccc3c(-c3ccc(O)c(N)c3)c2c1C` registered a melting point of 173 to 175 °C. In turn, `CC1=CC(=O)C(O)=CC1=CC=Cc1ccccc1` registered a melting point of 164 to 165 °C.

Consider `Cc1oc(-c2ccccc2)nc1COCc1cccc(COc2cc(Cl)ccc2C(=O)O)c1`, for which the melting point was determined as 137 °C. Take `COn1c(C)nc2c(NCc3c(C)cccc3C)cc(C(=O)N(C)C)cc21`: the melting point is 128 to 129 °C. To `O=[N+]([O-])c1ccc(Cl)c(C2SCCS2)c1` belongs 130 to 131 °C. `COc1cc(OCCSC)ccc1-c1nc2ncccc2[nH]1` came in with a melting point of 197 to 199 °C. In turn, `c1ccc(NCCCCCCCNc2ccccc2)cc1` yielded a melting point of 52 to 54 °C. To `CC(N=Cc1ccc(O)cc1)C1CCCCC1` (single isomer, unassigned; (+)) belongs 130 to 132 °C; to `COC(=O)C1(O)CC(OC(C)=O)C(NC(=O)Cc2cc(=O)oc3cc(OC(C)=O)ccc23)C(C(OC(C)=O)C(COC(C)=O)OC(C)=O)O1` (centres undefined), 105 °C; to `COc1nc(N)nc2c1ncn2C1OC(CO)C(OC(=O)c2ccccc2)C1O` (centres undefined), 155 to 157 °C. To `COc1ccc(Cc2cc(S)ccc2OC)cc1` belongs 78 °C; to `COc1ccc([N+](=O)[O-])cc1CNC(C)=O`, 158 to 160 °C; to `Clc1ccccc1Cn1ncnc1I`, 98 °C. `O=C(O)Cc1ccc(CCCSc2ccc(Cl)cc2)cc1` gave a melting point of 94 to 96 °C. `O=C(NCc1ncc(Cl)cc1Cl)c1c(Cl)cccc1Cl`: the melting point fell in the range of 161 to 165 °C. Molecule `CC(C)(C)n1cc(-c2ccc(S(=O)(=O)c3ccccc3)cc2)c2c(N)ncnc21` displayed a melting point of 222 to 224 °C. For the molecule `COC(=O)c1ccc2sc(C)cc2c1`, the melting point lay in the range of 97 to 98 °C. To `COC(=O)[C@H](Cc1cccc(O)c1)NC(=O)OC(C)(C)C` belongs 61 to 65 °C; to `CC(=O)OC1CSC(Oc2cc(-c3ccc(F)nc3)cnc2F)C(OC(C)=O)C1OC(C)=O` (centres undefined), 135 to 136 °C.

As for `CC(=O)NC[C@H]1CN(c2ccc(C3=CCSCC3)c(F)c2)C(=O)O1`, the melting point is 119 to 122 °C. To `CC(C)c1nccc2c(CC(=O)O)cccc12` belongs 181 to 182 °C; to `O=C(CC1CCCC1)c1c(-c2ccc3c(Br)c(OCc4nnn[nH]4)ccc3c2)oc2ccccc12`, 186 to 187 °C. On to `CCCc1[nH]c(C)c(C(C)=O)c1C`, for which the melting point fell in the range of 157 to 158 °C. For the molecule `Cc1oc2ccccc2c(=O)c1N`, the melting point fell in the range of 118 to 120 °C. Regarding `CN(Cc1cccc2c1C(=O)N(C1CCC(=O)NC1=O)C2=O)C(=O)Nc1ccc(Cl)cc1` (centres undefined), the melting point fell in the range of 279 to 281 °C. To `Cc1nc(-n2cnn(CC3CC3)c2=O)sc1C(=O)NCc1cc[nH]n1` belongs 167 to 168 °C; to `Cc1nc(NCc2ccccn2)c2c(-c3ccccc3)csc2n1`, 110 to 112 °C. For `Cc1ccc(C(c2cc(C(C)(C)C)cc(C(C)(C)C)c2O)N(C)C)cc1C` (centres undefined) the value was 82 to 85 °C. To `NS(=O)(=O)c1ccc(NN=C2C(=O)Nc3ccc(C(=O)NCCCn4ccnc4)cc32)cc1` belongs greater than 230 °C. Molecule `CCCCCCc1cc2c(cc1/C=C/c1ccc(C(=O)O)cc1)C(C)(C)CCC2(C)C` displayed a melting point of 134 to 136 °C.

With `NC(=O)CC(O)(Cn1cncn1)c1ccc(Cl)cc1Cl` (centres undefined), the melting point was in the range of 144 to 145 °C. `CCCCN(C1CCCOc2ccccc21)S(=O)(=O)CC` (centres undefined) came in with a melting point of 62 to 65 °C. To `CCCNC(=O)c1nc2n(c1C)CCc1ccccc1C2OC1CCN(C)CC1` (centres undefined) belongs 60 °C; to `Cc1ccnc(N2CCN(CCc3c(C)n4c5c(cc(C(O)C(C)C)cc35)CCC4)CC2)c1` (centres undefined), 140 °C.

For the molecule `CC(C)c1cccc(C(C)C)c1NC(=O)CS(=O)(=O)CCN1CCN(c2ccccc2)CC1`, the melting point lay in the range of 197 to 200 °C.

For `O=C(O)C(O)c1ccc2oc([N+](=O)[O-])c(-c3ccccc3)c2c1` (centres undefined), the melting point lay in the range of 158 to 161 °C. To `CCCNC(=O)c1ccc(-c2ccc3nnn(Cc4ccc5ncccc5c4)c3n2)cc1Cl` belongs 128 to 130 °C. For `CN(C)C(=O)Nc1ccc(NCc2ccc(Cl)cc2Cl)cc1N` the value was 147 to 152 °C; for `O=C(O)COc1cccc(-c2ccc(Cl)c(C(=O)NCC34CC5CC(CC(C5)C3)C4)c2)c1`, 99 to 101 °C; for `CC(=O)Oc1cccc2[nH]ccc12`, 97 to 98 °C. For `Cc1cc(NC(=O)C(C)(O)COc2cccc(C#N)c2)ccc1[N+](=O)[O-]` (centres undefined) the value was 107 to 110 °C. On to `CSC(=S)C1(c2ccccn2)CCCS1` (centres undefined), for which the melting point amounted to 64 °C.

`O=C(Oc1ccnc(OC(=O)c2ccccc2)c1)c1ccccc1` registered a melting point of 100 to 102 °C. To `CCc1cn(C2CC(O)C(CNC(=O)C(CC)c3ccccc3)O2)c(=O)[nH]c1=O` (centres undefined) belongs 235 to 236 °C. To `COC(=O)c1ccc(-c2ccc(C(F)(F)F)cc2)c(COC(C)=O)c1` belongs 94 °C; to `O=C1Nc2cc(Cl)ccc2Cn2cccc21`, 177 to 179 °C. For `Fc1ccc(-c2cc(-c3ccc(F)cc3)nc(Nc3ccc(OC(F)(F)F)cc3)n2)cc1` the value was 148 to 150 °C. Consider `O=C1CN(c2ccccc2)C1=O`, for which the melting point is 115 to 117 °C. For `CCn1c(N)c(C(=O)NC)c(=O)c2ccc(C#CC(C)(C)OCC(N)=O)nc21` the value was 204 °C. To `O=C1C(=O)c2ccccc2C2=C1SCC1(CCN(CC(O)COc3ccccc3)CC1)O2` (centres undefined) belongs 174 to 176 °C; to `CNc1nnc(SCc2ccccc2)s1`, 87 to 89 °C; to `FC(F)(F)c1ccc2nc3c(nc2c1)OCC1CCCCN31` (centres undefined), 154 to 156 °C.

In turn, `c1ccc2c(c1)Cc1ccncc1N1OC(CN3CCOCC3)CC21` (centres undefined) returned a melting point of 46 °C. Regarding `O=C(Cc1ccc(OCc2ccccc2)cc1)Nc1c(C(=O)O)oc2cc(-c3ccc(Cl)cc3)ccc12`, the melting point is 211 to 212 °C.

In the case of `CC(C)(C)OC(=O)NCC1(CC(N)=O)CCCCC1`, the melting point was 123 to 125 °C. In turn, `Fc1ccc(C2CSCC(=S)N2)cc1` (centres undefined) displayed a melting point of 107 to 108 °C.

For the molecule `COC(=O)c1sc2c(c1C)c1ccccc1n2C`, the melting point fell in the range of 166 to 167 °C.

`CC(=O)N(O)Cc1ccc(Oc2ccccn2)cc1`: the melting point was in the range of 97 to 99 °C. For `CCOC(=O)c1ncc2[nH]c3ccc(C4CCCCC4)cc3c2c1C` the value was 191 to 193 °C; for `Nc1c(CC(=O)O)cccc1Nc1ccc(Cl)cc1`, 190 to 192 °C. To `COC(=O)c1sc(-c2ccc(OCc3ccc([N+](=O)[O-])cc3)c(OC)c2)cc1NC(C)=O` belongs 193 to 194 °C; to `CCCc1c(OCCOCCOCCOCCOc2ccc3ccc(OCC(=O)O)cc3c2C(C)=O)ccc(C(C)=O)c1O`, 57 to 58 °C; to `CN(C(=O)NCCCl)c1ccc(C(O)(C(F)(F)F)C(F)(F)F)cc1`, 120 to 121 °C. `CC(Oc1ccc2nc(NC(=O)NCCN3CCC(Cc4ccccc4)CC3)sc2c1)c1c(Cl)ccc(F)c1Cl` (centres undefined) showed a melting point of 133 to 139 °C. `CCCCC(C)C(=O)C=P(c1ccccc1)(c1ccccc1)c1ccccc1` (centres undefined) had a melting point of 107 to 109 °C.

In the case of `COc1cc(C)c(C=CC(C)=CCCC=O)c(C)c1C`, the melting point was in the range of 42 to 45 °C.

Regarding `CN(c1cccc2cc(C3=NCC(CN4CCS(=O)(=O)CC4)S3)[nH]c12)S(=O)(=O)c1cccs1` (centres undefined), the melting point was found to be 242 °C.

Molecule `Cc1nc(N2CCN(CC3CC3(F)F)C2=O)sc1C(=O)NCc1cncs1` (centres undefined) displayed a melting point of 182 to 184 °C. Take `O=C(O)Cc1cccc2c(-c3ccc([N+](=O)[O-])cc3)nccc12`: the melting point is 252 to 254 °C. For `CC(=O)OCc1ncc2n1-c1ccc(Cl)cc1C(c1ccccc1F)=[N+]([O-])C2` the value was 203 to 205 °C; for `CCCC(=O)n1nc2c(c1NC)c(=O)n(CCC)c(=O)n2Cc1cccc(Cl)c1`, 152 to 153 °C; for `COc1ccccc1NC1=NN(S(=O)(=O)c2ccc(C)cc2)CC1`, 176 to 179 °C. `CSCC1CCN(c2cn(-c3cccnc3)nc2Cl)C1=O` (centres undefined): the melting point was 83 to 84 °C.

Consider `Cc1ccc2c(=O)n3nccc3[nH]c2n1`, for which the melting point was greater than 300 °C. As for `CNC(=O)Oc1cccc(NC(=O)C=C(C)OC)c1`, the melting point amounted to 175 °C. On to `O=C(Nc1c(Cl)cccc1Cl)c1cccc2cccnc12`, for which the melting point is 168 to 169 °C. To `COc1cc(C(CBr)(OC)OC)ccc1OS(=O)(=O)c1ccccc1` belongs 134 °C; to `N#Cc1ccc(-c2ccc(C=O)cc2)c(OCc2ccccc2)c1`, 131 to 132 °C. Molecule `CCCCCCCCCCCC(=O)OC1C(C)C(c2ccccc2)NC(c2ccccc2)C1C` (centres undefined) displayed a melting point of 74 to 76 °C. To `O=C(CCCl)Nc1ccc(C(=O)O)cc1` belongs 225 °C; to `COc1ccc(CCC(=O)C2CCC3C4CCc5cc(C(=O)O)ccc5C4CCC23C)cc1` (centres undefined), 178 to 179 °C; to `C(=C\c1cc(/C=C/c2ccccc2-c2cccnc2)[nH]n1)/c1ccc2cc[nH]c2c1`, 248 to 255 °C. Turning to `Cc1cccc2c1nc(COc1ccc(Cl)cc1)n2CCC(C)CN1CCCC1` (racemic), the melting point was in the range of 85 to 87 °C. For `CC(O)CCCCCc1ccc(-c2ccccc2)cc1` (centres undefined) the value was 47 to 48 °C. Consider `CCc1ccc(S(=O)(=O)NCc2ccccc2-c2ccccc2C(=O)NCCc2ccccc2)cc1`, for which the melting point is 163 °C.
